Data taken from patent US9493402B2, “Omega-aminoalkylamides of R-2-aryl-propionic acids as inhibitors of the chemotaxis of polymorphonucleate and mononucleate cells” (Dompé S.p.A., priority 2001, dated 2016).
Structures can show the parent of a compound that is named as a salt.

Experiments:
[1] = tested on: human PMNs (rhIL-8 induced chemotaxis); experiment: IL-8-induced chemotaxis of human PMNs (microchamber assay); type: cell-based; conditions: IL-8 10 ng/mL; for inhibition at 0.01 µM: compound 10^-8 M; for inhibition at 1 µM: compound c = 10^-6 M
Method: (§1) The compounds of the invention of formula (I) were evaluated “in vitro” for their ability to inhibit chemotaxis of polymorphonucleate leukocytes (hereinafter referred to as PMNs) and monocytes, induced by the fractions of the complement C5a and C5a-desArg. For this purpose, to isolate the PMNs from heparinized human blood, taken from healthy adult volunteers, mononucleates were removed by means of sedimentation on dextrane (according to the procedure disclosed by W. J. Ming et al., J. Immunol., 138, 1469, 1987) and red blood cells by a hypotonic solution. The cell vitality was calculated by exclusion with Trypan blue, whilst the ratio of PMNs was estimated on the cytocentrifugate after staining with Diff Quick.
(§2) In the chemotaxis experiments, the PMNs were incubated with the compounds of the invention of formula (I) for 15′ at 37° C. in an atmosphere containing 5% CO2.
(§3) The chemotactic activity of the C5a was evaluated on human circulating polymorphonucleates (PMNs) resuspended in HBSS at a concentration of 1.5×10^6 PMNs per ml.
(§4) During the chemotaxis assay (according to W. Falket et al., J. Immunol. Methods, 33, 239, 1980) PVP-free filters with a porosity of 5 mcm and microchambers suitable for carrying out the test were used.
The compounds of the invention in formula (I) were evaluated at a concentration ranging between 10^−6 and 10^−10 M; for this purpose they were added, at the same concentration, both to the lower pores and the upper pores of the microchamber. The wells in the lower part contain the solution of C5a or the simple carrier, those in the upper part contain the suspension in PMNs.
The compounds of the invention were also evaluated in their ability to inhibit IL-8-induced chemotaxis of human PMNs. For this purpose, recombinant human interleukin-8 (rhIL-8, Pepro Tech) was used: the lyophilized protein was dissolved in HBSS (Hank's balanced salts solution) at the concentration of 100 mcg/mL and then diluted down to a concentration of 10 ng/mL in the chemotaxis experiments. R(−)-2-[(4′-isobutyl)phenyl]-propionyl methansulfonamide (ED50=10^−9 M) described in WO 00/24710, was used as reference standard.

[2] = tested on: human circulating polymorphonucleates (PMNs), C5a induced chemotaxis; experiment: C5a-induced chemotaxis of human PMNs (microchamber assay); type: cell-based; conditions: compound 10^-5 M (so in the source), C5a 1 ng/mL
Method: as §1
The fractions hr-C5a and hrC5a-desArg (Sigma) were used as stimulating agents in chemotaxis experiments, obtaining practically identical results.
Lyophilized C5a was dissolved in a volume of HBSS containing 0.2% BSA so as to obtain a stock solution having a concentration of 10^−5 M, to be diluted in HBSS to a concentration of 10^−9 M, for the chemotaxis assays.
as §2, §3, §4
[…] The wells in the lower part contain the solution of C5a or the simple carrier, those in the upper part contain the suspension in PMNs.
Inhibition of C5a-induced chemotactic activity by the individual compounds of the invention of formula (I) was evaluated by incubating the microchamber for the chemotaxis for 60 min at 37° C. in an atmosphere containing 5% CO2.

[3] = tested on: human PMNs (rhIL-8 induced chemotaxis); conditions: reference standard; rhIL-8 10 ng/mL; read-out: ED50 (inhibition of IL-8-induced chemotaxis of human PMNs); cited from earlier work

| melting point | SMILES | inhibition at 0.01 µM [1] | inhibition at 1 µM [1] | inhibition at 10 µM ([2]; 1 h) | inhibition at 10 µM [2] | EC50 [3] |
| --- | --- | --- | --- | --- | --- | --- |
| 216 to 220 °C | CC(C)Cc1ccc([C@@H](C)C(=O)NCCCN2CCN(C)CC2)cc1.Cl.Cl | – | – | – | – | – |
| – | CC(C)c1cccc([C@@H](C)C(=O)NCCCN(C)C)c1 [(R) 2-(3-isopropylphenyl)-N-3-(dimethylaminopropyl)propionamide] | 5 ± 6% | 48 ± 2% | 42 ± 18% | 42 ± 18% | – |
| 90 to 93 °C | CC(C)Cc1ccc([C@@H](C)C(=O)NCCCN2CCOCC2)cc1.Cl [(R) 2-(4-isobutylphenyl)-N-3-(N-morpholinylpropyl)propionamide.HCl] | 55 ± 12% | – | 24 ± 11% | – | – |
| – | CC(C)Cc1ccc([C@@H](C)C(=O)NC2CCN(C)CC2)cc1 [(R) 2-(4-isobutylphenyl)-N-(1-methyl-piperidin-4-yl)propionamide hydrochloride] | 4 ± 9% | – | 48 ± 8% | – | – |
| – | CC(C)Cc1ccc([C@@H](C)C(=O)NCCCN)cc1 [(R) 2-(4-isobutylphenyl)-N-(3-aminopropyl)propionamide hydrochloride] | 2 ± 7% | – | 84 ± 8% | – | – |
| 95 to 98 °C | CC(C)Cc1ccc([C@@H](C)C(=O)NCCCN(C)C)cc1.Cl [(R) 2-(4-isobutylphenyl)-N-(3-dimethylaminopropyl)propionamide hydrochloride] | 51 ± 15% | – | 65 ± 14% | – | – |
| 95 to 97 °C | CC(C)Cc1ccc([C@@H](C)C(=O)NCCCCN(C)C)cc1.Cl [(R) 2-(4-isobutylphenyl)-N-(4-dimethylaminobutyl)propionamide. HCl] | 34 ± 6% | – | 55 ± 8% | – | – |
| – | CC(C)Cc1ccc([C@@H](C)C(=O)N[C@@H]2C[C@H]3CC[C@@H](C2)N3C)cc1 [(R) 2-(4-isobutylphenyl)-N-(exo-8-methyl-8-aza-bicyclo[3.2.1]oct-3-yl)propionamide hydrochloride] | 3 ± 8% | – | 57 ± 6% | – | – |
| 76 to 80 °C | CC(C)Cc1ccc([C@@H](C)C(=O)NCCCN2CCCCC2)cc1.Cl [(R) 2-(4-isobutylphenyl)-N-[3-(1-piperidinyl)propyl]propionamide hydrochloride] | 46 ± 8% | – | 76 ± 6% | – | – |
| – | CC(C)Cc1ccc([C@@H](C)C(=O)NC(CCCCN)C(=O)O)cc1 (stereo partly drawn) [(R),(S′) 2-(4′-isobutylphenyl)-N-(1-carboxy-5-aminopentyl)propionamide hydro-chloride] | 5% | – | 49% | – | – |
| 90 to 93 °C | CC(C)Cc1ccc([C@@H](C)C(=O)NCCN(C)C)cc1.Cl [(R)-2-(4-isobutylphenyl)-N-(2-dimethylaminoethyl)propionamide.HCl] | 56 ± 13% | – | 62 ± 12% | – | – |
| – | C[C@@H](C(=O)NCCCN(C)C)c1ccccc1Nc1c(Cl)cccc1Cl [(R)-2-[2-(2,6-dichlorophenylamino)-phenyl]-N-3-(dimethylaminopropyl) propionamide] | 1 ± 13% | 58 ± 6% | 41 ± 2% | 41 ± 2% | – |
| – | C[C@@H](C(=O)NCCCN(C)C)c1cccc(C(=O)c2ccccc2)c1 [(R)-2-[(3-benzoyl)phenyl]-N-(3-dimethylaminopropyl)propionamide] | 53 ± 8% | – | 56 ± 2% | – | – |
| – | CC(C)Cc1ccc([C@@H](C)C(=O)NS(C)(=O)=O)cc1 [R(−)-2-[(4′-isobutyl)phenyl]-propionyl methansulfonamide] | – | – | – | – | 1 nM |
| – | CC(C)Cc1ccc([C@@H](C)C(=O)NCC(=O)NCCN(C)C)cc1 [R-2-[(4′-isobutylphenyl]-N-[2-(dimethylaminoethyl)aminocarbonylmethyl]-propionamide hydrochloride] | 31 ± 6% | – | 68 ± 4% | – | – |
| – | CC(C)Cc1ccc([C@@H](C)C(=O)N[C@@H](CCCN2CCCCC2)C(=O)O)cc1 [sodium salt] | 56 ± 9% | – | 33 ± 15% | – | – |
